Results as given in US10821100B2, “Triazolone compounds as mPGES-1 inhibitors” (Glenmark Pharmaceuticals S.A., priority 2012, dated 2020).

Target: T1, Recombinant human mPGES-1 (Homo sapiens, UniProt O14684)
T1 construct: made in house; host or cells: CHO cells (crude microsomal fractions)
T1 sequence (O14684 1-152): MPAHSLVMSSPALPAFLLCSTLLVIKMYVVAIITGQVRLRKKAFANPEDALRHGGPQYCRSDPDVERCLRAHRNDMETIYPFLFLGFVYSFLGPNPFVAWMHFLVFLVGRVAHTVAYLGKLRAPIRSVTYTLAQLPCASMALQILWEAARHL
Assay: In-vitro screening of mPGES-1 inhibitors (inhibition of PGE2 formation from PGH2, HTRF detection)
Format: biochemical
Settings: mPGES-1 enzyme; for inhibition at 1 µM: 1 μM test compound, read-out: Percentage inhibition at 1 μM; for inhibition at 1 µM / inhibition at 10 µM: crude microsomal fractions; for inhibition at 10 µM: 10 μM test compound, read-out: Percentage inhibition at 10 μM; for IC50: class symbols
How it was run: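 PGH2-to-PGE2 isomerization run for 1 min with 15 μM PGH2 after 10 min compound preincubation with microsomal enzyme (40–60 μg/mL) and 2.5 mM GSH, pH buffer 0.1 M potassium phosphate with EDTA. Stannous chloride quench, HTRF PGE2 readout, IC50 fitted against uninhibited reaction.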

inhibition at 1 µM [%]	inhibition at 10 µM [%]	IC50 [nM]	Compound
97	97.1	< 50	O=C(NCc1ccc(Cl)c(-n2nc(-c3ccc(C#Cc4cccc(C(F)(F)F)c4)cc3F)[nH]c2=O)c1)C1CC1 [Example-80, N-(4-Chloro-3-(3-(2-fluoro-4-((3-(trifluoromethyl)phenyl)ethynyl)phenyl)-5-oxo-4,5-dihydro-1H-1,2,4-triazol-1-yl)benzyl)cyclopropanecarboxamide]
79.2	85.8	> 100	O=C(Nc1ccc(C(F)(F)F)cc1)c1ccc(-n2nc(-c3c(F)cccc3Cl)[nH]c2=O)cc1 [Example-29, 4-(3-(2-Chloro-6-fluorophenyl)-5-oxo-4,5-dihydro-1H-1,2,4-triazol-1-yl)-N-(4-(trifluoromethyl)phenyl)benzamide]
98.4	99.5	< 50	CC(C)C(=O)NCc1ccc(Cl)c(-n2nc(-c3ccc(C#CC4CC4)c(F)c3)[nH]c2=O)c1 [Example-150, N-(4-Chloro-3-(3-(4-(2-cyclopropylethynyl)-3-fluorophenyl)-4,5-dihydro-5-oxo-1,2,4-triazol-1-yl)benzyl)isobutyramide]
96.9	98.6	50 to 100	O=C(Nc1cccc(C(F)(F)F)c1)c1ccc(-n2nc(-c3c(F)cccc3Cl)[nH]c2=O)cc1 [Example-31, 4-(3-(2-Chloro-6-fluorophenyl)-5-oxo-4,5-dihydro-1H-1,2,4-triazol-1-yl)-N-(3-(trifluoromethyl)phenyl)benzamide]
98.5	96.5	< 50	CC(C)(C)C(=O)NCc1ccc(Cl)c(-c2nn(-c3ccc(Cl)c(C(F)(F)F)c3)c(=O)[nH]2)c1 [Example-157, N-(4-Chloro-3-(1-(4-chloro-3-(trifluoromethyl)phenyl)-4,5-dihydro-5-oxo-1H-1,2,4-triazol-3-yl)benzyl)pivalamide]

Continued, compound first:

Compound	inhibition at 1 µM [%]	inhibition at 10 µM [%]	IC50 [nM]
CC(C)(C)C(=O)NCc1ccc(Cl)c(-n2nc(-c3ccc(C#CC4CC4)c(F)c3)[nH]c2=O)c1 [Example-166, N-(4-Chloro-3-(3-(4-(2-cyclopropylethynyl)-3-fluorophenyl)-4,5-dihydro-5-oxo-1,2,4-triazol-1-yl)benzyl)pivalamide]	99.7	100	< 50
COc1ccc(-n2nc(-c3c(F)cccc3Cl)[nH]c2=O)cc1C(=O)NC1(c2ccccc2C(F)(F)F)CC1 [Example-21, 5-[3-(2-Chloro-6-fluorophenyl)-5-oxo-4,5-dihydro-1H-1,2,4-triazol-1-yl]-2-methoxy-N-{1-[2-(trifluoromethyl)phenyl]cyclopropyl}benzamide]	76.1	91.8	
CC(C)(C)C(=O)NCc1ccc(Cl)c(-c2nn(-c3ccc(F)cc3F)c(=O)[nH]2)c1F [Example-85, N-(4-Chloro-j-(1-(2,4-difluorophenyl)-5-oxo-4,5-dihydro-1H-1,2,4-triazol-3-yl)-2-fluorobenzyl)pivalamide]	22.6	69.3	
Cc1ccc(CNC(=O)C(C)C)c(C)c1-c1nn(-c2ccc(C#CC(C)(C)C)c(F)c2)c(=O)[nH]1 [Example-170, N-(3-(1-(3-Fluoro-4-(3,3-dimethylbut-1-ynyl)phenyl)-4,5-dihydro-5-oxo-1H-1,2,4-triazol-3-yl)-2,4-dimethylbenzyl)isobutyramide]	99.8	98.9	< 50
Cc1cc(C(F)(F)F)ccc1-n1nc(-c2cc(CNC(=O)C(C)(C)C)ccc2Cl)[nH]c1=O [Example-159, N-(4-Chloro-3-(1-(4-(trifluoromethyl)-2-methylphenyl)-4,5-dihydro-5-oxo-1H-1,2,4-triazol-3-yl)benzyl)pivalamide]	75.4	96.8	> 100
